Test results reported in ChEMBL document CHEMBL3507680, “University of Dundee, Gates Library screen for HepG2 cell viability”.

Test: Human HepG2 cell viability assay in 384 well format
Format: toxicity, cell-based
Parameters: dose 125 nL, time 70.5 hour; cytotoxicity at 70.5 h: concentration not given beside the values
Conditions: HepG2 cells, read-out: Inhibition

| SMILES | cytotoxicity at 70.5 h |
| --- | --- |
| O=C(c1ccco1)N1C[C@H]2CCCN(Cc3ccncc3)[C@H]2C1 | -3.44% |
| CCc1ccccc1Nc1noc2c1CN(C(=O)C1CCCO1)CC2 (stereo unspecified) | -3.46% |
| FC(F)(F)c1cc(C2CCCN(Cc3ccncc3)C2)n[nH]1 (stereo unspecified) | -1.55% |
| Cc1cncc(C(=O)N2CCC3(CCCN(c4nncs4)C3)C2)c1 (stereo unspecified) | -3.85% |
| Cc1cc(C(=O)N2CCCN(Cc3cnn(C(C)C)c3)CC2)no1 | -3% |
| Cc1nnc(NC(=O)C2CSCN2C(=O)C2CCCC2)s1 (stereo unspecified) | -3.18% |
| CC(C)N1CCCC1c1csc(N)n1 (stereo unspecified) | -1.44% |
| Cc1cccc(OCC(O)CN2CCC(c3ccn[nH]3)CC2)c1 (stereo unspecified) | -0.803% |
| COCCN1CCO[C@H]2CN(Cc3cccc(C)n3)C[C@H]21 | -5.32% |
| CC(C)COC(C)C(=O)NCCNC(=O)C(C)C (stereo unspecified) | -1.79% |
| O=C(NCc1ccc2c(c1)OCO2)c1ccc(N2CCCCC2)nn1 | 12.8% |
| CCCS(=O)(=O)N1C[C@@H]2COC[C@]2(CN2CCOCC2)C1 | -10.5% |
| O=C(c1n[nH]c2c1CN(C1CCOCC1)CC2)N1CCCC1 | -6.32% |
| CN1CCN(C)C(CNC(=O)N(C)Cc2ccccc2Cl)C1 (stereo unspecified) | -0.256% |
| CC(=O)c1ccc(N2CCC3(CCC(=O)N(CCCO)C3)CC2)nc1 | 3.25% |
| CC(C)c1ncc(CN2CCC(O)(c3ccccc3F)CC2)cn1 | 2.86% |
| O=C(NCc1nc2ccccc2[nH]1)c1cc2n(n1)CCCO2 | -1.37% |
| CCN1CCN(CC(O)c2ccc(OC(F)(F)F)cc2)CC1 (stereo unspecified) | 28.9% |
| CC1(C(=O)N2CCSCC2)CNCCO1 (stereo unspecified) | 11.8% |
| CC1CN(C)c2ccccc2CN1C(=O)c1ccoc1 (stereo unspecified) | 10% |
| Cc1nc(C)n(CC2CCCN(Cc3cccc(C#N)c3)C2)n1 (stereo unspecified) | -15.1% |
| CCN(CC)C(CNS(=O)(=O)c1ccc(C(C)=O)cc1)c1ccco1 (stereo unspecified) | -3.55% |
| O=C(CC1CCCC1)NCCNCc1cccc2c1OCCO2 | 4.62% |

| SMILES | cytotoxicity at 70.5 h |
| --- | --- |
| CC[C@@H](C)[C@H](NC(=O)Cn1ccc2c(Cl)cccc21)C(=O)O | -13.9% |
| CN1CCC2(Cc3ccccc3CN(C(=O)c3ccc(Cl)cc3)C2)C1 (stereo unspecified) | 35.9% |
| CN1CCCCC1c1nc(Cc2cccc(F)c2)no1 (stereo unspecified) | -7.67% |
| Cc1ccc(F)cc1-c1ccc(N)nc1 | 15.8% |
| CCOCC1CN(CCN2CCCCC2)Cc2cnn(C)c21 (stereo unspecified) | 2.16% |
| COc1ncccc1CN1CCc2[nH]cnc2C1CCSC (stereo unspecified) | 25.1% |
| Cc1nsc(N2CCCN(CC(=O)N(C)C3CC3)CC2)n1 | -4.31% |
| Cc1ccc(S(=O)(=O)N2CC[C@H]3CO[C@H](CN(C)C)[C@H]3C2)cc1 | -6.81% |
| c1cncc(N2CCC(c3ccncc3)CC2)c1 | 3.31% |
| COC(=O)c1ccc(C2CC(=O)Nc3c2cnn3C)cc1 (stereo unspecified) | 3.26% |
| CC(C)c1ccc(-c2nonc2N)cc1 | 1.97% |
| O=C1OCCN1CC(=O)N1C[C@H]2CC[C@@H]1CN(Cc1cscn1)C2 | 27.8% |
| c1cc(-c2cnccn2)cc(-c2ccn(CCCN3CCCCC3)n2)c1 | -7.3% |
| Cc1nc2ccccc2nc1NCc1nnc2n1CCC2 | 0.938% |
| Cn1cc(C2(C)CN(C(=O)COc3ccccc3F)CCO2)cn1 (stereo unspecified) | -4.09% |
| O=C(c1nc(=O)[nH]c2ccccc12)N1CCCC2(CCNC2)C1 (stereo unspecified) | 8.43% |
| O=C(CN1CCCC(O)C1)NC(=O)NCc1cccs1 (stereo unspecified) | -8.04% |
| c1csc(CN2C[C@H](OCC3CCOCC3)[C@H]3COC[C@H]32)n1 | 14.6% |
| CNC(=O)c1cccc(CNC(C)c2cc(Cl)ccc2OC)c1 (stereo unspecified) | -2.03% |
| O=C(Cn1cc(I)cn1)NCC1CCC1 | -20.2% |
| Cc1nnc(NCc2ccc(Cl)cc2)o1 | -6.23% |
| CC(C)(O)CN1CCN(C(=O)C2CSc3ccccc3O2)CC1 (stereo unspecified) | -14.7% |
| COc1ccccc1-n1c(C)cc(CNC(=O)NC(C)C)c1C | -9.03% |
